Assay results: US10548321B2 (priority 2009, dated 2020)
Read-outs that look alike come from different tables or passages of the source.

Tested on: Pyricularia oryzae
Type: cell-based
Conditions: single active, absorption at 405 nm 7 days after inoculation, 18° C

Row | SMILES | Observed efficacy (1 ppm) | Observed efficacy (0.004 ppm)
1 | CC1(C)C(C=C(Cl)Cl)C1C(=O)OC(C#N)c1cccc(Oc2ccccc2)c1 (stereo not drawn) [alpha-Cypermethrin, alpha-cypermethrin] | 1% | –
2 | COC(=O)N(OC)c1ccccc1COc1ccn(-c2ccc(Cl)cc2)n1 [Pyraclostrobin, pyraclostrobin] | – | 23%
